Our source for the DC50 values is patent publication US12077555B2, “STAT degraders and uses thereof” (Kymera Therapeutics, Inc., priority 2019, dated 2024).

This test has as its target STAT3 (Homo sapiens, UniProt P40763). Put plainly: STAT3 HiBiT degradation assay in transfected A549 cells. It counts as cell-based. Also on record: expressed in transfected cells; host or cells: A549. Conditions: A549, 24 h; read-out: STAT3 HiBiT A549 degradation 24 h: Average external-Abs DC50. The gist of the method:
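Transfected A549 cells (~2000/well) plated 24 h, then treated 24 h at 37 °C, 5% CO2 with a 3-fold, 10-point compound dilution. HiBiT lytic luminescence read after 10 min at room temperature; remaining STAT3 normalized to negative and positive controls, four-parameter fit. DC50 binned A <0.01, B 0.01–0.1, C 0.1–1.0, D >1.0 µM.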

STAT3, sequence (P40763 whole entry): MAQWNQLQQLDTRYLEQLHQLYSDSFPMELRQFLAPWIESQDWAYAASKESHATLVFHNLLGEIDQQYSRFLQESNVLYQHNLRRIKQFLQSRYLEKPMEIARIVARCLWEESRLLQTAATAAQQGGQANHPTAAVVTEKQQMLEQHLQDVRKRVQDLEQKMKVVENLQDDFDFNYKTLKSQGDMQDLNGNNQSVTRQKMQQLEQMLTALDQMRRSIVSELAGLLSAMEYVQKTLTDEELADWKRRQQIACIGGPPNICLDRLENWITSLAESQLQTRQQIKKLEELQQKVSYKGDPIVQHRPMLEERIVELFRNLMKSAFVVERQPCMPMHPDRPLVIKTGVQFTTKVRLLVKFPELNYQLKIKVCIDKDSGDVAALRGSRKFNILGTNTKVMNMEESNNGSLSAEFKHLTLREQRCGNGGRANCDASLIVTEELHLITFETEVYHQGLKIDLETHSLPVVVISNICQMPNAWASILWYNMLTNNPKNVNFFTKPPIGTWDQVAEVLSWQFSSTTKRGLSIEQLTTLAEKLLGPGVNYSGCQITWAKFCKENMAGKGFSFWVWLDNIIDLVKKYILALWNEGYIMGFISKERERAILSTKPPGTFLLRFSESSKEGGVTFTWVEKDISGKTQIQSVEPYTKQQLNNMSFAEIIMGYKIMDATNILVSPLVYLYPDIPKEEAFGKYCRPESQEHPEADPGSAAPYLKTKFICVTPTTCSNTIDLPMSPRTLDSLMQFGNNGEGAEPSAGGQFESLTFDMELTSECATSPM

For `Cc1ncsc1-c1ccc(CNC(=O)[C@@H]2C[C@@H](O)CN2C(=O)[C@@H](NC(=O)CCCCCCCCCOC[C@H](CCC(N)=O)NC(=O)[C@@H]2Cc3cccc4c3N2C(=O)[C@@H](NC(=O)c2cc3cc(C(=O)P(=O)(O)O)ccc3[nH]2)CC4)C(C)(C)C)cc1` [Compound I-153, 2-[[(2S,11S)-2-[[(2S)-4-carbamoyl-1-[(9-[[(2S)-1-[(2S,4R)-4-hydroxy-2-([[4-(4-methyl-1,3-thiazol-5-yl)phenyl]methyl]carbamoyl)pyrrolidin-1-yl]-3,3-dimethyl-1-oxobutan-2-yl]carbamoyl]nonyl)oxy]butan-2-yl]carbamoyl]-12-oxo-1-azatricyclo[6.4.1.0^[4,13]]trideca-4(13),5,7-trien-11-yl]carbamoyl]-1H-indole-5-carbonylphosphonic acid], the DC50 is more than 1000 nM. On to `Cc1cc(CO[C@H](C)[C@H](CCC(N)=O)NC(=O)[C@@H]2Cc3cccc4c3N2C(=O)[C@@H](NC(=O)c2cc3cc(C(=O)P(=O)(O)O)ccc3[nH]2)CC4)ccc1CCCCC(=O)N[C@H](C(=O)N1C[C@H](O)C[C@H]1C(=O)N[C@@H](C)c1ccc(-c2scnc2C)cc1)C(C)(C)C` [Compound I-218, diammonium 2-[[(2S,11S)-2-[[(3S,4R)-1-carbamoyl-4-[[4-(4-[[(2S)-1-[(2S,4R)-4-hydroxy-2-[[(1S)-1-[4-(4-methyl-1,3-thiazol-5-yl)phenyl]ethyl]carbamoyl]pyrrolidin-1-yl]-3,3-dimethyl-1-oxobutan-2-yl]carbamoyl]butyl)-3-methylphenyl]methoxy]pentan-3-yl]carbamoyl]-12-oxo-1-azatricyclo[6.4.1.0^[4,13]]trideca-4(13),5,7-trien-11-yl]carbamoyl]-1H-indole-5-carbonylphosphonate], for which the DC50 was less than 10 nM.

For the molecule `Cn1c(=O)n(C2CCC(=O)NC2=O)c2ccc(C3CC(CCCCC(=O)N4CC[C@H]5CC[C@@H](C(=O)N[C@@H](CCC(N)=O)C(=O)NC(c6ccccc6)c6ccccc6)N5C(=O)[C@@H](NC(=O)c5cc6cc(C(=O)P(=O)(O)O)ccc6[nH]5)C4)C3)cc21` (stereo partly drawn) [Compound I-208, 2-[[(5S,8S,10aR)-8-[[(1S)-3-carbamoyl-1-(diphenylmethylcarbamoyl)propyl]carbamoyl]-3-(5-[3-[1-(2,6-dioxopiperidin-3-yl)-3-methyl-2-oxo-1,3-benzodiazol-5-yl]cyclobutyl]pentanoyl)-6-oxo-octahydropyrrolo[1,2-a][1,5]diazocin-5-yl]carbamoyl]-1H-indole-5-carbonylphosphonic acid], the DC50 was 100 to 1000 nM.

Take `Cn1c(=O)n(C2CCC(=O)NC2=O)c2ccc(CCCCCCCc3cc4c5c(c3)C[C@@H](C(=O)N[C@@H](CCC(N)=O)C(=O)NC(c3ccccc3)c3ccccc3)N5C(=O)[C@@H](NC(=O)c3cc5cc(C(=O)P(=O)(O)O)ccc5[nH]3)CC4)cc21` (stereo partly drawn) [Compound I-182, 2-[[(2S,11S)-2-[[(1S)-3-carbamoyl-1-(diphenylmethylcarbamoyl)propyl]carbamoyl]-6-[7-[1-(2,6-dioxopiperidin-3-yl)-3-methyl-2-oxo-1,3-benzodiazol-5-yl]heptyl]-12-oxo-1-azatricyclo[6.4.1.0^[4,13]]trideca-4(13),5,7-trien-11-yl]carbamoyl]-1H-indole-5-carbonylphosphonic acid]: the DC50 lay within 100 to 1000 nM. With `Cc1ncsc1-c1ccc(CNC(=O)[C@@H]2C[C@@H](O)CN2C(=O)[C@@H](NC(=O)C2CCN(c3ccc(CO[C@H](C)[C@H](CCC(N)=O)NC(=O)[C@@H]4Cc5cccc6c5N4C(=O)[C@@H](NC(=O)c4cc5cc(C(=O)P(=O)(O)O)ccc5[nH]4)CC6)cc3)CC2)C(C)(C)C)cc1` [Compound I-161] the figure was more than 1000 nM; with `CC(C)c1ccc(CNC(=O)[C@H](CCC(N)=O)NC(=O)[C@@H]2CC[C@@H]3CCN(C(=O)[C@H]4CC[C@@H](CCc5ccc6c(c5)n(C)c(=O)n6C5CCC(=O)NC5=O)CC4)C[C@H](NC(=O)c4cc5cc(C(=O)P(=O)(O)O)ccc5[nH]4)C(=O)N32)cc1` (stereo partly drawn) [Compound I-295, (2-(((5S,8S,10aR)-8-(((S)-5-amino-1-((4-isopropylbenzyl)amino)-1,5-dioxopentan-2-yl)carbamoyl)-3-((1r,4R)-4-(2-(1-(2,6-dioxopiperidin-3-yl)-3-methyl-2-oxo-2,3-dihydro-1H-benzo[d]imidazol-5-yl)ethyl)cyclohexane-1-carbonyl)-6-oxodecahydropyrrolo[1,2-a][1,5]diazocin-5-yl)carbamoyl)-1H-indole-5-carbonyl)phosphonic acid], less than 10 nM; with `Cn1c(=O)n(C2CCC(=O)NC2=O)c2ccc(C[C@H]3CC[C@@H](CC(=O)N4CC[C@H]5CC[C@@H](C(=O)N[C@@H](CCC(N)=O)C(=O)NCc6cccc7ccccc67)N5C(=O)[C@@H](NC(=O)c5cc6cc(C(=O)P(=O)(O)O)ccc6[nH]5)C4)CC3)cc21` (stereo partly drawn) [Compound I-197, 2-[[(5S,8S,10aR)-8-[[(1S)-3-carbamoyl-1-[(naphthalen-1-ylmethyl)carbamoyl]propyl]carbamoyl]-6-oxo-3-[2-[(1S,4S)-4-[[1-(2,6-dioxopiperidin-3-yl)-3-methyl-2-oxo-1,3-benzodiazol-5-yl]methyl]cyclohexyl]acetyl]-octahydropyrrolo[1,2-a][1,5]diazocin-5-yl]carbamoyl]-1H-indole-5-carbonylphosphonic acid], 100 to 1000 nM. With `Cc1ncsc1-c1ccc([C@H](C)NC(=O)[C@@H]2C[C@@H](O)CN2C(=O)[C@@H](NC(=O)CCCc2cccc(OC[C@@H](NC(=O)[C@@H]3Cc4cccc5c4N3C(=O)[C@@H](NC(=O)c3cc4cc(C(=O)P(=O)(O)O)ccc4[nH]3)CC5)C(N)=O)c2)C(C)(C)C)cc1` [Compound I-194, diammonium 2-[[(2S,11S)-2-[[(2S)-4-carbamoyl-1-[3-(3-[[(2S)-1-[(2S,4R)-4-hydroxy-2-[[(1S)-1-[4-(4-methyl-1,3-thiazol-5-yl)phenyl]ethyl]carbamoyl]pyrrolidin-1-yl]-3,3-dimethyl-1-oxobutan-2-yl]carbamoyl]propyl)phenoxy]butan-2-yl]carbamoyl]-12-oxo-1-azatricyclo[6.4.1.0^[4,13]]trideca-4(13),5,7-trien-11-yl]carbamoyl]-1H-indole-5-carbonylphosphonate] the figure was 10 to 100 nM. The figure for `CC(=O)N1CC[C@H]2CC[C@@H](C(=O)N[C@@H](CCC(N)=O)C(=O)NCCCCCCCCC(=O)N[C@H](C(=O)N3C[C@H](O)C[C@H]3C(=O)NCc3ccc(-c4scnc4C)cc3)C(C)(C)C)N2C(=O)[C@@H](NC(=O)c2cc3cc(C(=O)P(=O)(O)O)ccc3[nH]2)C1` [Compound I-173] is more than 1000 nM. With `Cc1ncsc1-c1ccc([C@H](C)NC(=O)[C@@H]2C[C@@H](O)CN2C(=O)[C@@H](NC(=O)CCCCCc2cccc(O[C@H](C)[C@H](CCC(N)=O)NC(=O)[C@@H]3Cc4cccc5c4N3C(=O)[C@@H](NC(=O)c3cc4cc(C(=O)P(=O)(O)O)ccc4[nH]3)CC5)c2)C(C)(C)C)cc1` [Compound I-219, 2-[[(2S,11S)-2-[[(3S,4R)-1-carbamoyl-4-[3-(5-[[(2S)-1-[(2S,4R)-4-hydroxy-2-[[(1S)-1-[4-(4-methyl-1,3-thiazol-5-yl)phenyl]ethyl]carbamoyl]pyrrolidin-1-yl]-3,3-dimethyl-1-oxobutan-2-yl]carbamoyl]pentyl)phenoxy]pentan-3-yl]carbamoyl]-12-oxo-1-azatricyclo[6.4.1.0^[4,13]]trideca-4(13),5,7-trien-11-yl]carbamoyl]-1H-indole-5-carbonylphosphonic acid], the DC50 lay in the range of 100 to 1000 nM. Turning to `Cc1ncsc1-c1ccc([C@H](C)NC(=O)[C@@H]2C[C@@H](O)CN2C(=O)[C@@H](NC(=O)CCCc2cccc(NC(=O)[C@H](CCC(N)=O)NC(=O)[C@@H]3Cc4cccc5c4N3C(=O)[C@@H](NC(=O)c3cc4cc(C(=O)P(=O)(O)O)ccc4[nH]3)CC5)c2)C(C)(C)C)cc1` [Compound I-248], the DC50 fell in the range of 10 to 100 nM. In the case of `CC(=O)N1CC[C@H]2CC[C@@H](C(=O)N[C@@H](CCC(N)=O)COc3cccc(CCCC(=O)N[C@H](C(=O)N4C[C@H](O)C[C@H]4C(=O)N[C@@H](C)c4ccc(-c5scnc5C)cc4)C(C)(C)C)c3F)N2C(=O)[C@@H](NC(=O)c2cc3cc(C(=O)P(=O)(O)O)ccc3[nH]2)C1` [Compound I-231, diammonium 2-[[(5S,8S,10aR)-3-acetyl-8-[[(2S)-4-carbamoyl-1-[2-fluoro-3-(3[[(2S)-1-[(2S,4R)-4-hydroxy-2-[[(1S)-1-[4-(4-methyl-1,3-thiazo1-5-yl)phenyl]ethyl]carbamoyl]pyrrolidin-1-yl]-3,3-dimethyl-1-oxobutan-2-yl]carbamoyl]propyl)phenoxy]butan-2-yl]carbamoyl]-6-oxo-octahydropyrrolo[1,2-a][1,5]diazocin-5-yl]carbamoyl]-1H-indole-5-carbonylphosphonate], the 50% degradation concentration (DC50) was 10 to 100 nM.

On to `Cn1c(=O)n(C2CCC(=O)NC2=O)c2ccc(CCCCCCC(=O)N3CC[C@H]4CC[C@@H](C(=O)N[C@H](CCC(N)=O)C(=O)NC(c5ccccc5)c5ccccc5)N4C(=O)[C@@H](NC(=O)c4cc5cc(C(=O)P(=O)(O)O)ccc5[nH]4)C3)cc21` (stereo partly drawn) [Compound I-181, 2-[[(5S,8S,10aR)-8-[[(1R)-3-carbamoyl-1-(diphenylmethylcarbamoyl)propyl]carbamoyl]-3-[7-[1-(2,6-dioxopiperidin-3-yl)-3-methyl-2-oxo-1,3-benzodiazol-5-yl]heptanoyl]-6-oxo-octahydropyrrolo[1,2-a][1,5]diazocin-5-yl]carbamoyl]-1H-indole-5-carbonylphosphonic acid], for which the DC50 is more than 1000 nM.

As for `Cc1ncsc1-c1ccc(CNC(=O)C2C[C@@H](O)CN2C(=O)[C@@H](NC(=O)CC2CC(c3ccc(CO[C@H](C)[C@H](CCC(N)=O)NC(=O)[C@@H]4Cc5cccc6c5N4C(=O)[C@@H](NC(=O)c4cc5cc(C(=O)P(=O)(O)O)ccc5[nH]4)CC6)cc3)C2)C(C)(C)C)cc1` (some centres unmarked) [Compound I-176], the DC50 is more than 1000 nM.

What is called DC50 is the concentration at which degradation of the target reaches its halfway point.
